Data from patent US20100143277A1, “Skin Lightening Compositions with Acetylcholinesterase Inhibitors” (priority 2008, published 2010).
Values joined by “and” are separate entries in the source; they are usually repeats but may differ in a detail not shown here. Identical values can stand only once. Marks after values point to notes of the source that are not given here.

Test system: human epidermal melanocytes from dark human neonatal foreskin (HEMn-DP)
Assay: Quantification of total melanin in cultured melanocytes after 72 hours treatment
Assay type: cell-based
Settings: for Mean mg melanin/100K cells: mean of triplicate; for mg melanin/100K cells: single replicate well, normalized to cell number
Method: Monolayer cultures were initiated from cryopreserved cultures of human epidermal melanocytes from dark human neonatal foreskin (HEMn-DP; C-202-5C; Cascade Biologics™), according to the manufacturer's instructions. Cells were cultured in Medium 254 (M-254-500, Cascade Biologics) supplemented with Human Melanocyte Growth Supplement (HMGS; S-0002-5, Cascade Biologics). Stocks of these cultures were generated and stored in Sythn-a-Freeze® cryopreservation media (R-005-50. Cascade Biologics) in liquid nitrogen at passage 2.
For use in assays, cells were thawed according to manufacturer's instructions, and subcultured to increase cell numbers as required. Cells were then plated into 6-well plates at ˜200,000 cells per well and incubated at 37° C., 5% CO2, and were used in assays at passage 4.
Once the melanocytes had adhered to the 6-well plate's (approx. 4-6 hr.), the medium was replaced with Medium 254 containing Human Melanocyte Growth Supplement PMA-free (HMGS-2; S-016-5 hereafter termed depleted media) for approximately 16 hours, or overnight, prior to treatment with the actives.
To develop the screening assay a variety of cell concentrations and incubation times were tested to obtain optimized measurable levels of melanin. During this process no materials were applied to the cells. In addition a standard melanin (M8631, Sigma Aldrich) stock solution was prepared in Solvable™ reagent (5NE9100, Perkin Elmer) to obtain a standard curve for evaluating levels of melanin extracted from cells using a spectrophotometer. Method development was performed to obtain the optimum time required to solubilize the melanin into solution without degradation and a reduction in color.
All stocks of active materials were diluted in DMSO, ethanol or media, before further dilution in depleted media. Treatments were applied to the cells in 6-well plates in triplicate for 72 hours after which time the cells were harvested. Appropriate solvent controls in triplicate were incorporated into each assay.
After 72 hours, media was removed form the cells and the cells were washed once in Dulbecco's PBS. The PBS wash was removed and discarded and care being taken to ensure that all excess PBS was removed as far as possible. 1 mL trypsin-EDTA solution (R-001-100, Cascade Biologicsm) was added and cells incubated at room temperature for ˜1 minute. Microscopic observation was carried out to ensure all cells had detached from the plate. The resulting cell suspension was transferred to a 1.5 mL Eppendorf tube, 50 μL was removed for a cell count (Beckman coulter counter), and the remaining suspension was centrifuged at 13,000 rpm for 5 minutes. The supernatant was discarded and the cell pellets were frozen at −20° C.
The cell pellets were thawed at room temperature, and each pellet was re-suspended in 75 μL Solvable™ reagent (6NE9100, Perkin Elmer). Each tube was vortexed briefly, before incubating in a water bath at 60° C. for 1 hour. After the 1 hour incubation, each tube was vortexed and then centrifuged at 13,000 rpm for 15 minutes. The supernatant containing the extracted melanin was transferred to a 96 well plate and the absorbance at 490 nm recorded on a Dynex MRX-II plate reader.
Each ingredient was tested in triplicate and compared against the relevant vehicle control. The total amount of melanin extracted was calculated from a melanin standard curve. All resultant data was normalized to the total number of the cells in the sample. Data was subjected to the F-test for variance, followed by Student's t-test (assuming equal or unequal variance depending on results of the F-test.

Question: With `COc1ccc2c3c1O[C@H]1C[C@@H](O)C=C[C@@]31CCN(C)C2` [Galanthamine, galanthamine] as the compound, how does the “Mean mg melanin/100K cells” value (0.1 μM) read?
Answer: Its value is 24.0^e mg melanin/100K cells.

Question: What about the “mg melanin/100K cells” value (0.1 μM) of the same compound?
Answer: The value was 21.2 mg melanin/100K cells and 26.7 mg melanin/100K cells and 23.9 mg melanin/100K cells.

Question: What about the “Mean mg melanin/100K cells” value (1 μM) of the same compound?
Answer: Its value is 19.4^d mg melanin/100K cells.

Question: What about the “mg melanin/100K cells” value (1 μM) of the same compound?
Answer: The value was 21.0 mg melanin/100K cells and 18.6 mg melanin/100K cells and 18.5 mg melanin/100K cells.

Question: What about the “Mean mg melanin/100K cells” value (10 μM) of the same compound?
Answer: The value was 23.4^c mg melanin/100K cells.

Question: And the “mg melanin/100K cells” value (10 μM)?
Answer: The value was 23.3 mg melanin/100K cells and 23.7 mg melanin/100K cells and 23.0 mg melanin/100K cells.
